The target in this assay is T1, GST-ALK5 (Homo sapiens, UniProt P36897).
T1 sequence (P36897 34-503): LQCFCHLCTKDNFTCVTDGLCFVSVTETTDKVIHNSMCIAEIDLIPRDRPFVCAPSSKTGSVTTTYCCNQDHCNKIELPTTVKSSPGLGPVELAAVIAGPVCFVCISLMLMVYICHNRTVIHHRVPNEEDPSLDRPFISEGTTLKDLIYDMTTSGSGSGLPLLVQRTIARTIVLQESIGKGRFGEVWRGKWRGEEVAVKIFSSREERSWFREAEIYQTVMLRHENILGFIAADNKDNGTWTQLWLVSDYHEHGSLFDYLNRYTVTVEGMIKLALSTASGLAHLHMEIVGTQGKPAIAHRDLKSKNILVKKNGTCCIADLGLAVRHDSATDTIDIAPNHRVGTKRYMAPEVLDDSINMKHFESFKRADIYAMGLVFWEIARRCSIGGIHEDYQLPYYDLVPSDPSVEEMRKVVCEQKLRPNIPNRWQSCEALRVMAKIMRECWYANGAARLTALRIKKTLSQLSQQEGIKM
Put plainly: In-vitro (enzyme) flashplate kinase assay, inhibition of TGF-beta receptor I kinase. Particulars: 384-well flashplate, GST-ALK5, GST-SMAD2 substrate, 3 mM ATP, 30° C., 45 min. It counts as biochemical. On the procedure:
In-Vitro (Enzyme) Assay for Determination of the Efficacy of Inhibitors of the Inhibition of TGF-Beta-Mediated Effects
The kinase assay was carried out as 384-well flashplate assay. 31.2 nM of GST-ALK5, 439 nM of GST-SMAD2 and 3 mM of ATP (with 0.3 μCi of ^33P-ATP/well) were incubated in a total volume of 35 μl (20 mM of HEPES, 10 mM of MgCl2, 5 mM of MnCl2, 1 mM of DTT, 0.1% of BSA, pH 7.4) without or with test substance (5-10 concentrations) at 30° C. for 45 min. The reaction was stopped using 25 μl of 200 mM EDTA solution, filtered with suction at room temperature after 30 min, and the wells were washed with 3 times 100 μl of 0.9% NaCl solution. Radioactivity was measured in the TopCount. The IC50 values were calculated using RS1 (Table 1). Above and below, all temperatures were indicated in ° C.
A word on the IC50: it is the midpoint of a concentration-inhibition curve. Low values mean greater potency, high ones weaker potency. For the molecule `COc1cc(-c2cnc3sc(NCCc4ccccn4)nn23)cc(OC)c1OC` [No 20, (2-Pyridin-2-yl-ethyl)-[5-(3,4,5-trimethoxy-phenyl)-imidazo[2,1-b][1,3,4]thiadiazol-2-yl]-amine], half-maximal inhibition (IC50) required 270 nM.

Molecule `Cc1cc(-c2cnc3sc(NCc4ccco4)nn23)cc(C)c1O` [No 38, 4-{2-[(Furan-2-ylmethyl)-amino]-imidazo[2,1-b][1,3,4]thiadiazol-5-yl}-2,6-dimethyl-phenol] displayed an IC50 of 240 nM. The IC50 values of the last two molecules are within 1.5-fold of each other.

Take `CC(=O)c1cccc(-c2cnc3sc(NCCN4CCOCC4)nn23)c1` [No 158, 1-{3-[2-(2-Morpholin-4-yl-ethylamino)-imidazo[2,1-b][1,3,4]thiadiazol-5-yl]-phenyl}-ethanone]: half-maximal inhibition (IC50) was put at 780 nM.

For `COc1cc(-c2cnc3sc(NCc4cccs4)nn23)cc(OC)c1OC` [No 165, Thiophen-2-ylmethyl-[5-(3,4,5-trimethoxy-phenyl)-imidazo[2,1-b][1,3,4]thiadiazol-2-yl]-amine], half-maximal inhibition (IC50) was put at 330 nM. Compared with the last molecule, the IC50 is about 2.4-fold lower.

The molecule `COc1cc(-c2cnc3sc(NCC(C)C)nn23)cc(OC)c1OC` [No 266, Isobutyl-[5-(3,4,5-trimethoxy-phenyl)-imidazo[2,1-b][1,3,4]thiadiazol-2-yl]-amine] displayed an IC50 of 820 nM.

Molecule `COc1cc(-c2cnc3sc(NCC4CCOCC4)nn23)cc(OC)c1OC` [No 274, (Tetrahydro-pyran-4-ylmethyl)-[5-(3,4,5-trimethoxy-phenyl)-imidazo[2,1-b][1,3,4]thiadiazol-2-yl]-amine] registered an IC50 of 810 nM.

As for `COc1cc(-c2cnc3sc(NCCOc4ccccc4)nn23)cc(OC)c1OC` [No 277, (2-Phenoxy-ethyl)-[5-(3,4,5-trimethoxy-phenyl)-imidazo[2,1-b][1,3,4]thiadiazol-2-yl]-amine], the IC50 turned out to be 780 nM. This IC50 and that of the molecule before are within 1.5-fold of each other.

On to `COc1cc(-c2cnc3sc(NCc4cccs4)nn23)ccc1O` [No 307, 2-Methoxy-4-{2-[(thiophen-2-ylmethyl)-amino]-imidazo[2,1-b][1,3,4]thiadiazol-5-yl}-phenol], for which the IC50 amounted to 740 nM.

Regarding `CC(=O)c1cccc(-c2cnc3sc(NCCc4ccncc4)nn23)c1` [No 360], the IC50 was 700 nM.

In the case of `COc1cc(-c2cnc3sc(NC4CCC(O)CC4)nn23)cc(OC)c1OC` (stereo not shown) [No 363, 4-[5-(3,4,5-Trimethoxy-phenyl)-imidazo[2,1-b][1,3,4]thiadiazol-2-ylamino]-cyclohexanol], the IC50 was determined as 570 nM.

With `COc1cc(-c2cnc3sc(NCc4cccnc4)nn23)cc(OC)c1OC` [No 416, Pyridin-3-ylmethyl-[5-(3,4,5-trimethoxy-phenyl)-imidazo[2,1-b][1,3,4]thiadiazol-2-yl]-amine], half-maximal inhibition (IC50) was put at 670 nM.

In turn, `COc1cc(-c2cnc3sc(NCCc4ccncc4)nn23)cc(OC)c1OC` [No 442, (2-Pyridin-4-yl-ethyl)-[5-(3,4,5-trimethoxy-phenyl)-imidazo[2,1-b][1,3,4]thiadiazol-2-yl]-amine] returned an IC50 of 480 nM.

Consider `COc1cc(-c2cnc3sc(NCCCO)nn23)cc(OC)c1OC` [No 456, 3-[5-(3,4,5-Trimethoxy-phenyl)-imidazo[2,1-b][1,3,4]thiadiazol-2 - ylamino]-propan-1-ol], for which the IC50 was 740 nM.

For `COc1cc(-c2cnc3sc(NCCc4ccc(S(N)(=O)=O)cc4)nn23)cc(OC)c1OC` [No 464, 4-{2-[5-(3,4,5-Trimethoxy-phenyl)-imidazo[2,1-b][1,3,4]thiadiazol-2-ylamino]-ethyl}-benzenesulfonamide], 160 nM corresponded to half-maximal inhibition (IC50).

In turn, `CC(=O)c1cccc(-c2cnc3sc(NCCc4ccc(S(N)(=O)=O)cc4)nn23)c1` [No 490, 4-{2-[5-(3-Acetyl-phenyl)-imidazo[2,1-b][1,3,4]thiadiazol-2-ylamino]-ethyl}-benzenesulfonamide] showed an IC50 of 360 nM. This IC50 lies about 2.2-fold higher than the previous one.

The molecule `COc1cc(-c2cnc3sc(NCCN4CCOCC4)nn23)cc(OC)c1OC` [No 495, (2-Morpholin-4-yl-ethyl)-[5-(3,4,5-trimethoxy-phenyl)-imidazo[2,1-b][1,3,4]thiadiazol-2-yl]-amine] gave an IC50 of 490 nM.

These data come from patent publication US8389554B2, “Imidazothiadiazole derivatives” (Merck Patent Gesellschaft mit Beschränkter Haftung, priority 2008, dated 2013).
